This passage reports IC50 results from US9315500B2, “Bicyclic heteroaryl cycloalkyldiamine derivatives” (NOVARTIS AG, priority 2012, dated 2016).

This test addresses SYK (SYK(2-635)) (Homo sapiens (Human), UniProt P43405). Description: SYK enzyme assay (chip based microfluidic mobility shift assay). Format: biochemical. To be noted: SYK kinase, 4 μM ATP/peptide solution, 30° C., 60 minutes, Caliper mobility shift. The method, then: A number of compounds of the present invention were assayed in a chip based microfluidic mobility shift assay. All assays were performed in 384 well microtiter plates. Each assay plate contained 8-point serial dilutions for 40 test compounds, as well as four 8-point serial dilutions of staurosporine as reference compound, plus 16 high- and 16 low controls. Liquid handling and incubation steps were done on a Thermo CatX workstation equipped with a Innovadyne Nanodrop Express. Between pipetting steps, tips were cleaned in wash cycles using wash buffer. The assay plates were prepared by addition of 50 nl per well of compound solution in 90% DMSO. The kinase reactions were started by stepwise addition of 4.5 μl per well of peptide/ATP-solution (50 mM HEPES, pH 7.5, 1 mM DTT, 0.02% Tween20, 0.02% BSA, 0.6% DMSO, 10 mM beta-glycerophosphate, and 10 μM sodium orthovanadate, 1 mM MgCl2, 3 mM MnCl2, 4 μM ATP, 4 μM peptide (5-Fluo-Ahx-GAPDYENLQELNKK-Amid) and 4.5 μl per well of enzyme solution (50 mM HEPES, pH 7.5, 1 mM DTT, 0.02% Tween20, 0.02% BSA, 0.6% DMSO, 10 mM beta-glycerophosphate, and 10 μM sodium orthovanadate, 1 mM MgCl2, 3 mM MnCl2, 4 nM SYK (SYK(2-635), produced in-house from insect cells). Kinase reactions were incubated at 30° C. for 60 minutes and subsequently terminated by addition of 16 μl per well of stop solution (100 mM HEPES pH 7.5, 5% DMSO, 0.1% Caliper coating reagent, 10 mM EDTA, and 0.015% Brij35). Plates with terminated kinase reactions were transferred to the Caliper LC3000 workstations for reading. Phosphorylated and unphosphorylated peptides were separated using the Caliper microfluidic mobility shift technology. Briefly, samples from terminated kinase reactions were applied to the chip. Analytes are transported through the chip by constant buffer flow and the migration of the substrate peptide is monitored by the fluorescence signal of its label. Phosphorylated peptide (product) and unphosphorylated peptide (substrate) are separated in an electric field by their charge/mass ratio. Kinase activities were calculated from the amounts of formed phospho-peptide. IC50 values were determined from percent inhibition values at different compound concentrations by non-linear regression analysis.
Test compounds were dissolved in DMSO (10 mM) and transferred into 1.4 mL flat bottom or V-shaped Matrix tubes carrying a unique 2D matrix. The stock solutions were stored at […] if not used immediately. For the test procedure the vials were defrosted and identified by a scanner whereby a working sheet was generated that guided the subsequent working steps.
Compound dilutions were made in 96 well plates. This format enabled the assay of maximally 40 individual test compounds at 8 concentrations (single points) including 4 reference compounds. The dilution protocol included the production of “pre-dilution plates”, “master plates” and “assay plates”.
Pre-dilution plates: 96 polypropylene well plates were used as pre-dilution plates. A total of 4 pre-dilution plates were prepared including 10 test compounds each on the plate positions A1-A10, one standard compound at A11 and one DMSO control at A12. All dilution steps were done on a HamiltonSTAR robot.
Master plates: 30 μL of individual compound dilutions including standard compound and controls of the 4 “pre-dilution plates” were transferred into a 384 “master plate” including the following concentrations 1′810, 362, 72.5, […], 14.5, 2.9, 0.58 and 0.12 μM, respectively in 90% of DMSO.
Assay plates: Identical “assay plates” were then prepared by pipetting 50 nL each of compound dilutions of the “master plates” into 384-well “assay plates” by means of a HummingBird 384-channel dispenser. These plates were used directly for the assay which was performed in a total volume of 9.05 μL. This led to a final compound concentration of 10, 2.0, 0.4, 0.08, 0.016, 0.0032, 0.00064 and 0.000128 μM and a final DMSO concentration of 0.5% in the assay.

As usually defined, the IC50 is the concentration that inhibits the measured activity by half. Turning to `N[C@H]1CCCC[C@H]1Nc1cc2cn[nH]c(=O)c2c(Nc2cccc3[nH]ccc23)n1` [Example 2.9, 7-((1R,2S)-2-Amino-cyclohexylamino)-5-(1H-indol-4-ylamino)-3H-pyrido[3,4-d]pyridazin-4-one], the 50% inhibitory concentration (IC50) was determined as 2.7 nM.
